Laboratory results as given in PMC9830638, “High-Contrast Detection of Somatostatin Receptor Subtype-2 for Fluorescence-Guided Surgery” (Molecular Pharmaceutics, 2022).

Tested on: orthotopically implanted BON–SSTR2 tumors
Test: Simulated clinical workflow, PET/CT imaging in orthotopic BON–SSTR2 tumor model
Format: in vivo, mice
Settings: orthotopic BON–SSTR2, 7.4 MBq (0.5 nmol), 1 h after injection, n = 5
Description: Mice bearing orthotopically implanted BON–SSTR2 tumors (n = 5) were injected with 7.4 MBq (200 μCi; 0.5 nmol) of ^68Ga-DOTA-TOC and underwent PET/computed tomography (CT) imaging (Albira small animal PET/CT scanner, Bruker) 1 h after injection. […] After euthanasia, tumors were harvested under white light, and the wound bed was re-imaged with NIRF. After a more thorough visual inspection of the wound bed under white light, suspicious lesions were identified and harvested with the intact organ for ex vivo imaging along with other tissues of interest. Tumors, suspicious lesions, and relevant non-tumor tissues were processed for immunohistopathological and mesoscopic imaging.
For CFT two-dimensional (2D) and three-dimensional (3D) reconstruction, 2D images were obtained from individual slices, and an image stack was generated to produce 3D data sets. For PET/CT imaging, region-of-interest analysis was done with Integrated PMOD software (PMOD technologies) to standardize uptake values and determine TBRs.

1,4,7,10-tetraazacyclododecane-1,4,7,10-tetraacetic acid-Tyr^3-octreotide [68Ga-DOTA-TOC]
mice with abnormal uptake in the abdomen (PET/CT): 4 out of 5
